According to patent publication US20060211887A1, “Phosphate salts of 6-dimethylaminomethyl-1-(3-methoxyphenyl)-1,3-dihydroxy-cyclohexane compounds” (priority 2005, published 2006):
Structures can show the parent of a compound that is named as a salt.

Columns and labels:
[1] = DVS (dynamic vapor sorption) experiment on the amorphous phosphate salt; assay type: physicochemical
From the text: The amorphous phosphate salt of I crystallized during a DVS (dynamic vapor sorption) experiment at a relative atmospheric humidity of 45% r.h.

[2] = Storage of the amorphous phosphate salt at 75% r.h.; assay type: physicochemical; conditions: crystallized after 8 days
From the text: The amorphous phosphate salt crystallized after 8 days on storage at a relative atmospheric humidity of 75% r.h. and formed form A.

## COc1cccc([C@@]2(O)C[C@H](O)CC[C@@H]2CN(C)C)c1 (racemic) [amorphous phosphate salt of I, (1RS,3RS,6RS)-6-dimethylaminomethyl-1-(3-methoxyphenyl)-cyclohexane-1,3-diol]
[1]
  Relative atmospheric humidity at which the amorphous salt crystallized: 45 % r.h.
[2]
  Form formed on storage: form A

## COc1cccc([C@@]2(O)C[C@H](O)CC[C@@H]2CN(C)C)c1 (racemic) [form A, (1RS,3RS,6RS)-6-dimethylaminomethyl-1-(3-methoxyphenyl)-cyclohexane-1,3-diol]
[1]; desorption
  Stability of the hydrate formed during the desorption: remained stable during the desorption
